# Molecular target: T1, soluble guanylate cyclase (sGC) (Bos taurus, UniProt P16068)
# T1 construct: The sGC which was employed had been isolated from bovine lung; from tissue; host or cells: bovine lung
# T1 sequence (P16068 1-619): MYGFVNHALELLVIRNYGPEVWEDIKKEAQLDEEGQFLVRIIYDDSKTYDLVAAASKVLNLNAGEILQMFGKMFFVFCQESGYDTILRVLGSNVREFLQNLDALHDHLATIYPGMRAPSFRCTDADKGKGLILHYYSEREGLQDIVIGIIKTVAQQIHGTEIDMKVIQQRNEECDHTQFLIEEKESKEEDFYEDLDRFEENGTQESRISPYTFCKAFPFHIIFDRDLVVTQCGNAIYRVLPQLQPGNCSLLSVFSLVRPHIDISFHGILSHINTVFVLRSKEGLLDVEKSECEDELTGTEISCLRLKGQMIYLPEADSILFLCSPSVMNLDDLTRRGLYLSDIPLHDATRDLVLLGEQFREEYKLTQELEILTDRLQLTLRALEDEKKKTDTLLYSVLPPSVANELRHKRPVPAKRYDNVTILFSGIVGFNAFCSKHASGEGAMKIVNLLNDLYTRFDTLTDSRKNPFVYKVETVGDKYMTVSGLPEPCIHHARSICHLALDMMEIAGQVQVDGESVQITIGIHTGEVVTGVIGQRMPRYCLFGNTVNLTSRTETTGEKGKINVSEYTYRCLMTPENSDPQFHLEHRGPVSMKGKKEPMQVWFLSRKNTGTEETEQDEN
# T1 sequence (P19687 1-691 partner): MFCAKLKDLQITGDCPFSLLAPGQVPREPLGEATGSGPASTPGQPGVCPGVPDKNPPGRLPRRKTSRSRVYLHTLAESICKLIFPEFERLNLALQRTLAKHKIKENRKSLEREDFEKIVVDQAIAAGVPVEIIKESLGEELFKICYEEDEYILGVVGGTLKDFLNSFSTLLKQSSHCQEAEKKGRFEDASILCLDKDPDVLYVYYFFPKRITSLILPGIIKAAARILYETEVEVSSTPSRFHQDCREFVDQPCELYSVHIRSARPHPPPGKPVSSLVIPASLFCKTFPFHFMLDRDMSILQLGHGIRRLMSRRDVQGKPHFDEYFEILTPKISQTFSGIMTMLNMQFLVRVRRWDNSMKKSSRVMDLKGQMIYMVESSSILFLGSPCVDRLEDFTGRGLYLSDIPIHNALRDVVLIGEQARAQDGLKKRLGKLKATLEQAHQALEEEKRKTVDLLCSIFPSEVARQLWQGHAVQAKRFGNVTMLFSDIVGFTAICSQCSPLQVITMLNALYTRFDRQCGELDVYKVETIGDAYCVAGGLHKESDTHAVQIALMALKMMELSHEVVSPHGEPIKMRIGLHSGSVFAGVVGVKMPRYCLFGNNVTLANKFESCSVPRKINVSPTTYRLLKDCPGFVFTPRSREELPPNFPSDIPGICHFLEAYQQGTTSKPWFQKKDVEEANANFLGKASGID
# Assay: Activation of the soluble guanylate cyclase (cGMP enzyme immunoassay)
# Type: biochemical, bovine
# Conditions: concentration c 50 μM; n-fold stimulation of basal enzyme activity
# Description: The activation of the soluble guanylate cyclase (sGC) which catalyzes the conversion of guanosine triphosphate (GTP) into cyclic guanosine monophosphate (cGMP) and pyrophosphate, by the compounds according to the invention was quantified with the aid of an enzyme immunoassay (EIA) from Amersham. For this purpose the substances to be tested were initially incubated with sGC in microtiter plates, and the amount of the cGMP formed was then determined.
# The sGC which was employed had been isolated from bovine lung (see Methods in Enzymology, Volume 195, p. 377). The test solutions (100 μl per well) contained 50 mM triethanolamine (TEA) buffer (pH 7.5), 3 mM MgCl2, 3 mM reduced glutathione (GSH), 0.1 mM GTP, 1 mM 3-isobutyl-1-methylxanthine (IBMX), suitably diluted enzyme solution and the substance to be tested or, in the control experiments, the solvent. The substances to be tested were dissolved in dimethyl sulfoxide (DMSO) and the solution was diluted with DMSO/water, so that the final concentration (c) of the substance to be tested in the test solution had the value indicated in the table. The DMSO concentration in the test solution was 5% (v/v). The reaction was initiated by addition of the sGC. The reaction mixture was incubated at 37° C. for 15 to 20 minutes and then stopped by ice-cooling and addition of the stop reagent (50 mM EDTA, pH 8.0). An aliquot of 50 μl was taken and used for determining the cGMP content using the acetylation protocol of the Amersham cGMP-EIA kit. The absorption of the samples was measured at 450 nm (reference wavelength 620 nm) in a microtiter plate reader. The cGMP concentration was determined using a standard curve which was obtained under the same test conditions. The activation of sGC by a test substance is given as the n-fold stimulation of the basal enzyme activity which was found in the control experiments (using solvent instead of test substance) (calculated using the formula n-fold stimulation=[cGMP]test substance/[cGMP]control).
row,n-fold stimulation,Compound
1,14.7,"CSc1ccc(NC(=O)c2cc(Cl)ccc2NS(=O)(=O)c2ccc(Cl)cc2)cc1 [Example 23, 5-Chloro-2-(4-chloro-phenylsulfonylamino)-N-(4-methylmercapto-phenyl)-benzamide]"
2,33.9,"O=C(Nc1ccc(S(=O)(=O)N2CCSCC2)cc1)c1cc(Cl)ccc1NS(=O)(=O)c1ccc(Cl)cc1 [Example 63, 5-Chloro-2-(4-chloro-phenylsulfonylamino)-N-(4-(thiomorpholine-4-sulfonyl)-phenyl)-benzamide]"
3,23.9,"CN1CCN(S(=O)(=O)c2ccc(NC(=O)c3cc(Cl)ccc3NS(=O)(=O)c3ccc(Cl)cc3)cc2)CC1 [Example 64, 5-Chloro-2-(4-chloro-phenylsulfonylamino)-N-(4-(4-methyl-piperazine-1-sulfonyl)-phenyl)-benzamide]"
4,24.6,"CC1CN(S(=O)(=O)c2ccc(NC(=O)c3cc(Cl)ccc3NS(=O)(=O)c3ccc(Cl)cc3)cc2)CC(C)O1 (stereo not shown) [Example 65, 5-Chloro-2-(4-chloro-phenylsulfonylamino)-N-(4-(2,6-dimethyl-morpholine-4-sulfonyl)-phenyl)-benzamide]"
5,33,"C[C@@H]1CN(S(=O)(=O)c2ccc(NC(=O)c3cc(Cl)ccc3NS(=O)(=O)c3ccc(Cl)cc3)cc2)C[C@H](C)O1 [Example 66, 5-Chloro-2-(4-chloro-phenylsulfonylamino)-N-(4-(cis-2,6-dimethyl-morpholine-4-sulfonyl)-phenyl)-benzamide]"
6,29.6,"O=C(Nc1ccc(S(=O)(=O)N2CCC(O)CC2)cc1)c1cc(Cl)ccc1NS(=O)(=O)c1ccc(Cl)cc1 [Example 67, 5-Chloro-2-(4-chloro-phenylsulfonylamino)-N-(4-(4-hydroxy-piperidine-1-sulfonyl)-phenyl)-benzamide]"
7,12.1,"O=C(Nc1ccc(S(=O)(=O)N2CCC3(CC2)OCCO3)cc1)c1cc(Cl)ccc1NS(=O)(=O)c1ccc(Cl)cc1 [Example 68, 5-Chloro-2-(4-chloro-phenylsulfonylamino)-N-(4-(1,4-dioxa-8-aza-spiro[4.5]decane-8-sulfonyl)-phenyl)-benzamide]"
8,28.3,"O=C(Nc1ccc(S(=O)(=O)N2CCOCC2)cc1)c1cc(Cl)ccc1NS(=O)(=O)c1ccc(Cl)c(Cl)c1 [Example 69, 5-Chloro-2-(3,4-dichloro-phenylsulfonylamino)-N-(4-(morpholine-4-sulfonyl)-phenyl)-benzamide]"
9,25.1,"O=C(Nc1ccc(S(=O)(=O)N2CCSCC2)cc1)c1cc(Cl)ccc1NS(=O)(=O)c1ccc(Cl)c(Cl)c1 [Example 70, 5-Chloro-2-(3,4-dichloro-phenylsulfonylamino)-N-(4-(thiomorpholine-4-sulfonyl)-phenyl)-benzamide]"
10,13.4,"CN1CCN(S(=O)(=O)c2ccc(NC(=O)c3cc(Cl)ccc3NS(=O)(=O)c3ccc(Cl)c(Cl)c3)cc2)CC1 [Example 71, 5-Chloro-2-(3,4-dichloro-phenylsulfonylamino)-N-(4-(b4-methyl-piperazine-1-sulfonyl)-phenyl)-benzamide]"
11,27,"COc1cc(NS(=O)(=O)c2ccc(Cl)cc2)c(C(=O)Nc2ccc(S(=O)(=O)N3CCOCC3)cc2)cc1OC [Example 72, 2-(4-Chloro-phenylsulfonylamino)-4,5-dimethoxy-N-(4-(morpholine-4-sulfonyl)-phenyl)-benzamide]"
12,16.5,"O=C(Nc1ccc(S(=O)(=O)N2CCN(CCO)CC2)cc1)c1cc(Cl)ccc1NS(=O)(=O)c1ccc(Cl)cc1 [Example 73, 5-Chloro-2-(4-chloro-phenylsulfonylamino)-N-(4-(4-(2-hydroxy-ethyl)-piperazine-1-sulfonyl)-phenyl)-benzamide]"
13,5.1,"CCN(CC)S(=O)(=O)c1ccc(NC(=O)c2cc(Cl)ccc2NS(=O)(=O)c2ccc(Cl)cc2)cc1 [Example 75, 5-Chloro-2-(4-chloro-phenylsulfonylamino)-N-(4-diethylsulfamoyl-phenyl)-benzamide]"
14,10.6,"O=C(Nc1ccc(S(=O)(=O)N2CCCCC2)cc1)c1cc(Cl)ccc1NS(=O)(=O)c1ccc(Cl)cc1 [Example 76, 5-Chloro-2-(4-chloro-phenylsulfonylamino)-N-(4-(piperidine-1-sulfonyl)-phenyl)-benzamide]"
15,5.9,"COCCNS(=O)(=O)c1ccc(NC(=O)c2cc(Cl)ccc2NS(=O)(=O)c2ccc(Cl)cc2)cc1 [Example 77, 5-Chloro-2-(4-chloro-phenylsulfonylamino)-N-(4-(2-methoxy-ethylsulfamoyl)-phenyl)-benzamide]"
16,15.4,"O=C(Nc1ccc(S(=O)(=O)N2CCOCC2)cc1)c1sccc1NS(=O)(=O)c1ccc(Cl)cc1 [Example 79, 3-(4-Chloro-phenylsulfonylamino)-N-(4-(morpholine-4-sulfonyl)-phenyl)-thiophene-2-carboxamide]"
17,23.7,"O=C(Nc1ccc(S(=O)(=O)N2CCSCC2)cc1)c1sccc1NS(=O)(=O)c1ccc(Cl)cc1 [Example 84, 3-(4-Chloro-phenylsulfonylamino)-N-(4-(thiomorpholine-4-sulfonyl)-phenyl)-thiophene-2-carboxamide]"
18,12.5,"COc1cc(NS(=O)(=O)c2ccc(Cl)cc2)c(C(=O)Nc2ccc(S(=O)(=O)N3CCN(C)CC3)cc2)cc1OC [Example 87, 2-(4-Chloro-phenylsulfonylamino)-4,5-dimethoxy-N-(4-(4-methyl-piperazine-1-sulfonyl)-phenyl)-benzamide]"
19,11.6,"COc1cc(NS(=O)(=O)c2ccc(Cl)cc2)c(C(=O)Nc2ccc(S(=O)(=O)N3CCC(O)CC3)cc2)cc1OC [Example 89, 2-(4-Chloro-phenylsulfonylamino)-N-(4-(4-hydroxy-piperidine-1-sulfonyl)-phenyl)-4,5-dimethoxy-benzamide]"
20,31.2,"Cc1nn(C)c(Cl)c1S(=O)(=O)Nc1ccc(Cl)cc1C(=O)Nc1ccc(S(=O)(=O)N2CCSCC2)cc1 [Example 124, 5-Chloro-2-(5-chloro-1,3-dimethyl-1H-pyrazole-4-sulfonyl-amino)-N-(4-(thiomorpholine-4-sulfonyl)-phenyl)-benzamide]"
21,35.3,"Cc1nn(C)c(Cl)c1S(=O)(=O)Nc1ccc(Cl)cc1C(=O)Nc1ccc(S(=O)(=O)N2CCOCC2)cc1 [Example 130, 5-Chloro-2-(5-chloro-1,3-dimethyl-pyrazole-4-sulfonyl-amino)-N-(4-(morpholine-4-sulfonyl)-phenyl)-benzamide]"

row,Compound,n-fold stimulation
1,"Cc1ccc(NS(=O)(=O)c2ccc(Cl)cc2)c(C(=O)Nc2ccc(S(=O)(=O)N3CCSCC3)cc2)c1 [Example 86, 2-(4-Chloro-phenylsulionylamino)-5-methyl-N-(4-(thiomorpholine-4-sulfonyl)-phenyl)-benzamide]",32.9
